Measurements reported in US11312737B2, “Amide-linked EP4 agonist-bisphosphonate compounds and uses thereof” (SIMON FRASER UNIVERSITY, priority 2015, dated 2022).
Values belong to the compound of their own block, whether it stands above or below them.

How the values were obtained:
[1] = In vivo uptake and release studies of tritium labelled C3-conjugate over 28 days; conditions: rat
Procedure: In vivo uptake and release studies using tritium labelled C3-conjugate compound were performed. After intravenous dosing of 1-5 μCi/5 mg/kg of [^3H]-C3 to 15 rats, groups of 3 rats were euthanized at each time point a at t=6 h, 24 h, 7 d, 14 d, 28 d). The radioactivity in blood samples, spleen, liver and long bones was counted for each group of rats. […] After one week, 53% of label was eliminated and only traces were detected after 28 days (FIG. 6). In spleen, the counted radioactivity decreased from 1% 6 hours after dosing to 0.4% at t=28 days (FIG. 6).

leukocytes = assay: Neutrophil function effects; type: cell-based; conditions: for neutrophil speed / activity in leukocytes (neutrophil function): FIG. 13
[2] = In vivo uptake studies of tritium labelled C3, C4 and C5-conjugates 6 hours after dosing; conditions: rat; for % of the initial dose found in muscle: 6 hours after dosing; for uptake into long bones, % of initial dose: 6 hours after injection, tritium label
Procedure: The three conjugate compounds, C3, C4 and C5, were radiolabelled with tritium in the EP4 agonist moiety and used to monitor in vivo distribution in rat organs and uptake into bone after intravenous dosing.
The radioactivity in organs (heart, kidney, brain, muscle, one piece of muscle attached to bone, spleen and liver) was counted 6 hours after dosing (FIG. 3). For the C3-conjugate compound, calculations were done based on results obtained from two rats. Most of the labelled conjugate compounds were taken up into liver (65-74%), and about 1% and 0.2% were found in spleen and kidneys for all labelled conjugate compounds, after 6 hours. About 0.2% of the initial dose of the C4 and C5-conjugate compounds, and 2% of the C3-conjugate compound, was found in muscle. All other organs contained 0.05% of the initial dose of the conjugate compounds.
Finally, the uptake of the tritiated C3, C4 and C5-conjugate compounds into bones was counted (FIG. 4). All three conjugate compounds were well taken up into bone.

[3] = Stability of conjugate compounds in rat plasma; conditions: fresh rat plasma, 37° C., 100 μg/mL
Procedure: The amide-linked conjugate compounds were examined for their stability in rat plasma. […] The mixture was then incubated at 37° C. for 24 h. Aliquots of 10 μL were removed at 0, 2, 4, 6, 7 and 24 h, mixed to 10 mg of bone powder and 10-fold diluted with water in a 0.6 mL Eppendorf tube. A gentle stirring was applied for 20 min. 50 μL were then used to count the activity.

counted radioactivity in spleen ([1]; 6 hours after dosing): 1%
tritiated conjugate found in liver ([1]; 6 hours after injection): 69%
tritiated conjugate in liver ([1]; after 24 hours): remained in a high proportion
conjugate remained attached to bone ([1]; after 7 days, tritium label): 5.5%
tritiated conjugate in liver ([1]; after 28 days): only traces
label eliminated from liver ([1]; after one week): 53%
half-life (tritium label on bone) ([1]; calculated from bone data over 28 days): about 8 days
% of the initial dose observed in bone ([1]; end of the study (28 days), tritium label): 1.4%
activity detected in the bloodstream ([1]; over 28 days, tritium label): Very low activity
counted radioactivity in spleen ([1]; t=28 days): 0.4%
clearance from plasma ([1]; tritium label): rapid clearance
% of the initial dose found in muscle [2]: ~2%
hydrolysis after 24 h-incubation [3]: About 10%
Structure (SMILES): CCOC(=O)CCCCCCN1C(=O)CC[C@@H]1/C=C/[C@@H](OC(=O)Cc1ccc(C(=O)NCCCC(O)(P(=O)(O)O)P(=O)(O)O)cc1)C(F)(F)c1ccccc1 [C3-conjugate, Sodium (4-(4-(2-(((R,E)-4-((R)-1-(7-ethoxy-7-oxoheptyl)-5-oxopyrrolidin-2-yl)-1,1-difluoro-1-phenylbut-3-en-2-yl)oxy)-2-oxoethyl)benzamido)-1-hydroxybutane-1,1-diyl)bis(hydrogen phosphonate)]
neutrophil speed (leukocytes): low neutrophil speed

% of the initial dose found in muscle [2]: About 0.2%
uptake into long bones, % of initial dose [2]: about 10%
Structure (SMILES): CCOC(=O)CCCCCCN1C(=O)CC[C@@H]1/C=C/[C@@H](OC(=O)Cc1ccc(C(=O)NCCC(O)(P(=O)(O)O)P(=O)(O)O)cc1)C(F)(F)c1ccccc1 [C4-conjugate, Sodium (3-(4-(2-(((R,E)-4-((R)-1-(7-ethoxy-7-oxoheptyl)-5-oxopyrrolidin-2-yl)-1,1-difluoro-1-phenylbut-3-en-2-yl)oxy)-2-oxoethypbenzamido)-1-hydroxypropane-1,1-diyl)bis(hydrogen phosphonate)]
activity in leukocytes (neutrophil function) (leukocytes): active

% of the initial dose found in muscle [2]: About 0.2%
uptake into long bones, % of initial dose [2]: about 10%
Structure (SMILES): CCOC(=O)CCCCCCN1C(=O)CC[C@@H]1/C=C/[C@@H](OC(=O)Cc1ccc(C(=O)NCCCCCC(O)(P(=O)(O)O)P(=O)(O)O)cc1)C(F)(F)c1ccccc1 [C5-conjugate, Sodium (6-(4-(2-(((R,E)-4-((R)-1-(7-ethoxy-7-oxoheptyl)-5-oxopyrrolidin-2-yl)-1,1-difluoro-1-phenyibut-3-en-2-yl)oxy)-2-oxoethyl)benzamido)-1-hydroxyhexane-1,1-diyl)bis(hydrogen phosphonate)]

Structure (SMILES): CCOC(=O)CCCCCCN1C(=O)CC[C@@H]1/C=C/[C@@H](O)C(F)(F)c1ccccc1 [EP4 agonist, ethyl 7-((R)-2-((R,E)-4,4-difluoro-3-hydroxy-4-phenylbut-1-en-1-yl)-5-oxopyrrolidin-1-yl)heptanoate]
neutrophil speed (leukocytes): low neutrophil speed

Structure (SMILES): NCCCC(O)(P(=O)(O)O)P(=O)(O)O [alendronate, 4-amino-1-hydroxybutylidene-1,1-bisphosphonic acid monosodium trihydrate, reference compound]
activity in leukocytes (neutrophil function) (leukocytes): active

Structure (SMILES): O=C(O)Cc1ccc(C(=O)NCCCC(O)(P(=O)(O)O)P(=O)(O)O)cc1 [fragment 4, Sodium 2-(4-((4-hydroxy-4,4-bis(hydroxyoxidophosphoryl)butyl)carbamoyl)phenyl)acetate]
biological activity compared to alendronate alone (leukocytes): biologically inactive
activity in leukocytes (neutrophil function) (leukocytes): neither fragment 4 nor 5 exhibited significant activity

Structure (SMILES): O=C(O)Cc1ccc(C(=O)NCCC(O)(P(=O)(O)O)P(=O)(O)O)cc1 [fragment 5, Sodium2-(4-((3-hydroxy-3,3-bis(hydroxyoxidophosphoryl)propyl)carbamoyl)phenyl)acetate]
activity in leukocytes (neutrophil function) (leukocytes): neither fragment 4 nor 5 exhibited significant activity

Structure (SMILES): NCCC(O)(P(=O)(O)O)P(=O)(O)O [pamidronate, 3-amino-1-hydroxypropylidene-1,1-bisphosphonic acid, reference compound]
activity in leukocytes (neutrophil function) (leukocytes): active
